What all share (assay type): functional, cell-based
One experiment has as its system Lu1. Put plainly: Cytotoxicity against human Lu1 cells assessed as growth inhibition after 72 hrs by neutral red assay. The conditions noted are these: Lu1, 72 h.
The subject of the next experiment is KB. Put plainly: Cytotoxicity against human KB cells assessed as growth inhibition after 72 hrs by neutral red assay.
The subject of a further experiment is HepG2. Put plainly: Cytotoxicity against human HepG2 cells assessed as growth inhibition after 72 hrs by neutral red assay. The settings on record: HepG2, 72 h.
The test system of another experiment is MCF7. Put plainly: Cytotoxicity against human MCF7 cells assessed as growth inhibition after 72 hrs by neutral red assay. The settings on record: MCF7, 72 h.

For 16 molecules, IC50 results are on record in ChEMBL document CHEMBL4007502, “Cytotoxic dammarane-type triterpenoids from the leaves of Viburnum sambucinum” (Bioorg Med Chem Lett, 2017).

By IC50 is commonly meant the concentration that inhibits the measured activity by half.

In the case of `CC1(C)C(=O)CC[C@]2(C)[C@H]3C[C@@H](O)[C@@H]4[C@H](O)CC(=O)[C@@]4(C)[C@]3(C)CC[C@@H]12`, the half-maximal inhibitory concentration (IC50) in the experiment with Lu1 was 5.8 µM; with KB it was over 100 µM; with HepG2 it was 5.7 µM; in the experiment on MCF7, 4.3 µM.
For the molecule `CC1(C)[C@@H](O)CC[C@]2(C)[C@H]3C[C@@H](O)[C@@H]4[C@H](O)CC(=O)[C@@]4(C)[C@]3(C)CC[C@@H]12`, the IC50 with Lu1, in the experiment with KB, in the experiment on HepG2 and in the experiment on MCF7 was over 100 µM in each case.
Regarding `CC1(C)CC[C@]2(C(=O)O)CC[C@]3(C)C(=CC[C@@H]4[C@@]5(C)CC[C@H](O)C(C)(C)[C@@H]5CC[C@]43C)[C@@H]2C1` [OLEANOLIC_ACID], the IC50 with Lu1, with KB, in the experiment on HepG2 and in the experiment on MCF7 was over 100 µM throughout.
For `C/C(=C\CC[C@](C)(O)[C@H]1CC[C@]2(C)[C@@H]1CC[C@@H]1[C@@]3(C)CCC(=O)C(C)(C)[C@@H]3CC[C@]12C)C(=O)O`, the half-maximal inhibitory concentration (IC50) in the experiment with Lu1, in the experiment on KB, in the experiment with HepG2 and with MCF7 was over 100 µM in each case.
Turning to `CO[C@@H]1CC(=O)[C@]2(C)[C@@H]1[C@H](O)C[C@@H]1[C@@]3(C)CC[C@H](O)C(C)(C)[C@@H]3CC[C@]12C`, the half-maximal inhibitory concentration (IC50) in the experiment on Lu1 is 80.7 µM; with KB it was 78 µM; with HepG2, 82 µM; in the experiment on MCF7, 79.7 µM.
For `CC1(C)C(=O)CC[C@]2(C)[C@H]3C[C@@H](O)[C@@H]4C=CC(=O)[C@@]4(C)[C@]3(C)CC[C@@H]12`, in that order: 5.1 µM, 5 µM, 5.3 µM and 4.7 µM.
For `CC1(C)CC[C@]2(C(=O)O)CC[C@]3(C)C(=CC[C@@H]4[C@@]5(C)C[C@@H](O)[C@H](O)C(C)(C)[C@@H]5CC[C@]43C)[C@@H]2C1` [MASLINIC ACID], in that order: over 100 µM, over 100 µM, over 100 µM and over 100 µM.
For the molecule `C/C(=C\CC[C@](C)(O)[C@@H]1[C@H]2CC[C@@H]3[C@@]4(C)CCC(=O)C(C)(C)[C@@H]4CC[C@@]3(C)[C@]2(C)C[C@@H]1O)C(=O)O`, the half-inhibitory concentration (IC50) with Lu1, in the experiment on KB, in the experiment with HepG2 and with MCF7 was over 100 µM throughout.
On to `C[C@H]1[C@H](C)CC[C@]2(C(=O)O)CC[C@]3(C)C(=CC[C@@H]4[C@@]5(C)CC[C@H](O)C(C)(C)[C@@H]5CC[C@]43C)[C@H]12` [URSOLIC ACID], for which the half-inhibitory concentration (IC50) with Lu1 came out at 11.5 µM; in the experiment with HepG2, 40.2 µM; in the experiment with MCF7 it was 9.3 µM.
As to `C[C@H]1[C@H](C)CC[C@]2(C)CC[C@]3(C)C(=CC[C@@H]4[C@@]5(C)CC[C@H](O)C(C)(C)[C@@H]5CC[C@]43C)[C@H]12`, the IC50 with Lu1, with KB, in the experiment with HepG2 and in the experiment on MCF7 was over 100 µM in each case.
For the molecule `C[C@H]1[C@H](C)CC[C@]2(CO)CC[C@]3(C)C(=CC[C@@H]4[C@@]5(C)CC[C@H](O)C(C)(C)[C@@H]5CC[C@]43C)[C@H]12` [UVAOL], the half-maximal inhibitory concentration (IC50) in the experiment on Lu1 was 53.3 µM; with KB it was 37.7 µM; in the experiment with HepG2, 53.7 µM; in the experiment on MCF7, 58.2 µM.
For `CC1(C)[C@@H](O)CC[C@]2(C)[C@H]3C[C@@H](O)[C@@H]4C=CC(=O)[C@@]4(C)[C@]3(C)CC[C@@H]12`, the 50% inhibitory concentration (IC50) in the experiment on Lu1 is 5.2 µM; with KB it was 5.2 µM; in the experiment with HepG2, 5.1 µM; in the experiment with MCF7 it was 5 µM.
With `COc1c(-c2ccc(O)cc2)oc2cc(O)cc(O)c2c1=O` [ISOKAEMPFERIDE], the IC50 was found to be 60.1 µM in the experiment with Lu1, 64.8 µM in the experiment on KB, 62.5 µM in the experiment with HepG2 and 55.4 µM in the experiment with MCF7.
For `O=c1cc(-c2ccc(O)c(O)c2)oc2cc(O)cc(O)c12` [LUTEOLIN], in that order: 40.8 µM, 45.3 µM, 47.3 µM and 44.4 µM.
Consider `C/C(=C\CO)CCCC(C)CCCC(C)CCCC(C)C` (stereo not drawn), for which the IC50 with Lu1, with KB, with HepG2 and in the experiment on MCF7 was over 100 µM in each case.
Take `C=C(C)[C@@H]1CC[C@@]2(C)[C@H]1[C@H]1CC[C@@H]3[C@@]4(C)CCC(=O)C(C)(C)[C@@H]4CC[C@@]3(C)[C@]1(C)C[C@@H]2O`: the IC50 in the experiment on Lu1 was 61.5 µM; in the experiment on KB it was 30.5 µM; in the experiment on HepG2, 50.4 µM; with MCF7, 48 µM.
